The numbers were not newly measured in patent US8435963B2, “Weight loss compositions and uses thereof” (priority 2008, dated 2013), which cites them from elsewhere.

Molecules are shown by their SMILES. Counter-ions that a name gives are not always drawn. Like-named read-outs stand apart in the source and are kept apart here.

As to `COC(=O)[C@@H]1[C@H]2C[C@H]3c4[nH]c5cc(O)ccc5c4CCN3C[C@@H]2CC[C@@H]1O` [11-Hydroxy yohimbine], the half-life (as a rule, the time in which the quantity being followed falls by half) (human, in vivo) was 8 to 11 h.

Turning to `COC(=O)[C@@H]1[C@H]2C[C@H]3c4[nH]c5ccccc5c4CCN3C[C@@H]2CC[C@@H]1O` [yohimbine HCl, 17α-hydroxy-yohimban-16α-carboxylic acid methyl ester], the half-life (humans) was 2.5 h.
